Test results from patent publication US9868766B2, “Peptides as oxytocin agonists” (Hoffmann-La Roche Inc., priority 2012, dated 2018).
Positions of bridges follow the written chain, without caps; N, C: chain ends. Non-standard residues stand in square brackets, D forms with d. Residues, ends and D or L forms follow the SMILES beside them. Phe(4-NH2) = Nc1ccc(C[C@H](N)C(=O)O)cc1; aThr = C[C@H](O)[C@H](N)C(=O)O; Dab = NCC[C@H](N)C(=O)O; Sar = CNCC(=O)O

What was measured:
Type in all cases: cell-based
[1] = biological target: T1, human Oxytocin (OTR) receptor (Homo sapiens, UniProt P30559); test: Calcium flux assay (FLIPR), agonist mode, CHO cells expressing human OTR; conditions: for EC50: CHO cells stably expressing human OTR, calcium flux, read-out: hOT EC50; for hOT efficacy (%) / Emax: maximum response normalized to endogenous full agonist = 100%; for Emax: CHO, read-out: hOT efficacy (%)
T1 construct: expressed in transfected cells
T1 sequence (P30559 1-389): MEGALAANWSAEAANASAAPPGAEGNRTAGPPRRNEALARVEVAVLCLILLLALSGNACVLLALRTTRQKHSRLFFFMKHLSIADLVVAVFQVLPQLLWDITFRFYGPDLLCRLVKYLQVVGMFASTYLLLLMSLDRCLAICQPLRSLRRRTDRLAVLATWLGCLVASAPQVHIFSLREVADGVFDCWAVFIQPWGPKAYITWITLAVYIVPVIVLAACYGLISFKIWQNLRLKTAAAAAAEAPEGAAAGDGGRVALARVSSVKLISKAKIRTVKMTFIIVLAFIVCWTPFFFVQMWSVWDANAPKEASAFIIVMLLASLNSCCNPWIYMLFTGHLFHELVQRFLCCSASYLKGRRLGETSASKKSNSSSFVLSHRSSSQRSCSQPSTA
Source text: (§1) Chines Hamster Ovary (CHO) cells were transfected with expression plasmids encoding either the human V1a, the human Oxytocin (OTR) or the humanV2 receptor, the later in combination with the chimeric Gqs5 G protein to redirect the signal to Calcium flux. Stable cells were cloned by limiting dilution to yield monoclonal cell lines expressing either human V1a, human V2+Gqs5 or human OTR receptors and selected based on functional responses detected on a fluorometric imaging plate reader (FLIPR) detecting Calcium flux in the cell after receptor activation.
On the afternoon before the assay, cells were plated at a density of 50,000 cells/well into black 96 well plates with clear bottoms to allow cell inspection and fluorescence measurements from the bottom of each well. The density of cells was sufficient to yield a confluent monolayer the next day. Hanks balanced salt solution, without phenol red, containing 20 mM HEPES (pH 7.3) and 2.5 mM probenecid (assay buffer) was prepared fresh for each experiment. Compound dilutions were made using a Beckman Biomek 2000 laboratory automation workstation, in assay buffer containing 1% DMSO. The dye-loading buffer consisted of a final concentration of 2 μM Fluo-4-AM (dissolved in DMSO and pluronic acid) in assay buffer. […] Once dye-loaded, the cells were washed thoroughly on an Embla cell washer with the assay buffer to remove any unincorporated dye. Exactly 100 μl assay buffer was left in each well.
Each 96 well plate containing dye-loaded cells was placed into the FLIPR machine and the laser intensity set to a suitable level to detect low basal fluorescence. To test compounds as agonists, 25 μl diluted compound was added to the plate 10 seconds into the fluorescent measurements and fluorescent response was recorded for 5 minutes. The fluorescence data was normalized to the endogenous full agonist dose-response set at 100% for the maximum response and 0% for the minimum. […] The concentration of agonist that produced a half-maximal response is represented by the EC50 value, the logarithm of which yielded the pEC50 value.

[2] = biological target: T2, human V1a receptor (Homo sapiens, UniProt P37288); test: Calcium flux assay (FLIPR), agonist mode, CHO cells expressing human V1a; conditions: CHO cells stably expressing human V1a; calcium flux; read-out: hV1a EC50
T2 construct: expressed in transfected cells
Source text: as §1, with “activation. The stable cell lines were grown in F-12 K Nutrient Mixture (Kaighns Modification), containing 10% foetal bovine serum (FBS), 1% penicillin-streptomycin, 1% L-glutamate, 200 ug/ml Geneticin at 37° C. in a 10% CO2 incubator at 95% humidity.” for “activation.”
(§2) On the afternoon before the assay, cells were plated at a density of 50,000 cells/well into black 96 well plates with clear bottoms to allow cell inspection and fluorescence measurements from the bottom of each well. The density of cells was sufficient to yield a confluent monolayer the next day. Hanks balanced salt solution, without phenol red, containing 20 mM HEPES (pH 7.3) and 2.5 mM probenecid (assay buffer) was prepared fresh for each experiment. Compound dilutions were made using a Beckman Biomek 2000 laboratory automation workstation, in assay buffer containing 1% DMSO. The dye-loading buffer consisted of a final concentration of 2 μM Fluo-4-AM (dissolved in DMSO and pluronic acid) in assay buffer. The existing culture media was removed from the wells and 100 μl of the dye-loading buffer was added to each well and incubated for approximately 60 min at 37° C. in a 5% CO2 incubator at 95% humidity. Once dye-loaded, the cells were washed thoroughly on an Embla cell washer with the assay buffer to remove any unincorporated dye. Exactly 100 μl assay buffer was left in each well.
(§3) Each 96 well plate containing dye-loaded cells was placed into the FLIPR machine and the laser intensity set to a suitable level to detect low basal fluorescence. To test compounds as agonists, 25 μl diluted compound was added to the plate 10 seconds into the fluorescent measurements and fluorescent response was recorded for 5 minutes. The fluorescence data was normalized to the endogenous full agonist dose-response set at 100% for the maximum response and 0% for the minimum. Each agonist concentration-response curve was constructed using a four parameter logistic equation with Microsoft Excel XLFit as follows: Y=Minimum+((Maximum−Minimum)/(1+10^(Log EC50-X)nH)), where y is the % normalized fluorescence, minimum is the minimum y, maximum is the maximum y, log EC50 is the log10 concentration which produces 50% of the maximum induced fluorescence, x is the log10 of the concentration of the agonist compound and H is the slope of the curve (the Hill Coefficient). The maximum value gives the efficacy of the agonist test compound in percentage. The concentration of agonist that produced a half-maximal response is represented by the EC50 value, the logarithm of which yielded the pEC50 value.

[3] = biological target: T3, human V2 receptor (Homo sapiens, UniProt P30518); test: Calcium flux assay (FLIPR), agonist mode, CHO cells expressing human V2 + Gqs5; conditions: for EC50: CHO cells stably expressing human V2 + chimeric Gqs5, calcium flux, read-out: hV2 EC50; for Emax: CHO, read-out: hV2 efficacy (%)
T3 construct: expressed in transfected cells
Source text: as §1, with “activation. The stable cell lines were grown in F-12 K Nutrient Mixture (Kaighns Modification), containing 10% foetal bovine serum (FBS), 1% penicillin-streptomycin, 1% L-glutamate, 200 ug/ml Geneticin at 37° C. in a 10% CO2 incubator at 95% humidity.” for “activation.”
as §2, §3

[4] = maximum response normalized to endogenous full agonist = 100%

T3 sequence (P30518 whole entry): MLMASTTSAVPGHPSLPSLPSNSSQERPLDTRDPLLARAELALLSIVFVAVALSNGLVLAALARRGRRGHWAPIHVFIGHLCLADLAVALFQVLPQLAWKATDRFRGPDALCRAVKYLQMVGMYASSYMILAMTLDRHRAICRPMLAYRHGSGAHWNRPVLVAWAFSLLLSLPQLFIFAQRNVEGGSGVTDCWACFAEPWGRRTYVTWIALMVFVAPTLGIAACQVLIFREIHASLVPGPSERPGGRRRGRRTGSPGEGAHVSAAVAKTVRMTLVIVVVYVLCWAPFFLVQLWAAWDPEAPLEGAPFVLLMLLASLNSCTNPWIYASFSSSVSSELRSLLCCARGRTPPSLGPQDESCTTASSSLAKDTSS
T2 sequence (P37288 whole entry): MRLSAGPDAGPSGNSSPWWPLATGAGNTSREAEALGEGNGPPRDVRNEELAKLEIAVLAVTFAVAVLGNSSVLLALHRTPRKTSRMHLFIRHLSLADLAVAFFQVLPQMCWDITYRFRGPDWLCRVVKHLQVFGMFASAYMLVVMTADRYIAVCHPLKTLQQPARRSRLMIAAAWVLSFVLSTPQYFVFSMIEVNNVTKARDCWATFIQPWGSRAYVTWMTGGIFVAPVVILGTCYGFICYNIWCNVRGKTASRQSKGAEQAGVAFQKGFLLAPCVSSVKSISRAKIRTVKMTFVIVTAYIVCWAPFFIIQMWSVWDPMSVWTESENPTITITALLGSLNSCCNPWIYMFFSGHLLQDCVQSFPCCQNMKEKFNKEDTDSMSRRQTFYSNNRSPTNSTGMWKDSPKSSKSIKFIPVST

Row | Compound | EC50 [1] [nM] | hOT efficacy (%) [1] [%] | EC50 [2] [nM] | EC50 [3] [nM] | Emax [3, 4] [%] | Emax [1] [%] | hV2 efficacy (%) [3, 4] [%]
1 | CC[C@H](C)[C@@H]1NC(=O)[C@H](Cc2ccc(O)cc2)NC(=O)CNC(=O)CC[C@@H](C(=O)N(C)CC(=O)N[C@@H](Cc2ccc(N)cc2)C(=O)NCC(N)=O)NC(=O)[C@H](CC(N)=O)NC(=O)[C@H](CCC(N)=O)NC1=O [Example 1] (GYIQNE[Sar][Phe(4-NH2)]G-NH2; lactam N-6) | 10 | 111 | > 27000 | 4800 | 107 | – | –
2 | CC[C@H](C)[C@@H]1NC(=O)[C@H](Cc2ccc(N)cc2)NC(=O)CNC(=O)CC[C@@H](C(=O)N(C)CC(=O)N[C@@H](CC(C)C)C(=O)NCC(N)=O)NC(=O)[C@H](CC(N)=O)NC(=O)[C@H](CCC(N)=O)NC1=O [Example 2] (G[Phe(4-NH2)]IQNE[Sar]LG-NH2; lactam N-6) | 9 | 112 | > 27000 | 7910 | 74 | – | –
3 | CC[C@H](C)[C@@H]1NC(=O)[C@H](Cc2ccc(O)cc2)NC(=O)CNC(=O)CC[C@@H](C(=O)N(C)CC(=O)N[C@@H](CC(C)C)C(=O)NCC(N)=O)NC(=O)[C@H](CC(N)=O)NC(=O)[C@H](CCC(N)=O)NC1=O [Example 13] (GYIQNE[Sar]LG-NH2; lactam N-6) | 0.2 | – | > 27000 | 5110 | 97 | 111 | –
4 | CC[C@H](C)[C@@H]1NC(=O)[C@H](Cc2ccc(O)cc2)NC(=O)CNC(=O)CC[C@@H](C(=O)N(C)CC(=O)N[C@H](C(=O)NCC(N)=O)[C@H](C)O)NC(=O)[C@H](CC(N)=O)NC(=O)[C@H](CCC(N)=O)NC1=O [Example 25] (GYIQNE[Sar][aThr]G-NH2; lactam N-6) | 3 | 125 | > 10000 | 3820 | 103 | – | –
5 | CC[C@H](C)[C@@H]1NC(=O)[C@H](Cc2ccc(O)cc2)NC(=O)CNC(=O)CC[C@@H](C(=O)N(C)CC(=O)N[C@@H](CCC(=O)O)C(=O)NCC(N)=O)NC(=O)[C@H](CC(N)=O)NC(=O)[C@H](CCC(N)=O)NC1=O [Example 29] (GYIQNE[Sar]EG-NH2; lactam N-6) | 32 | 130 | > 10000 | 10700 | 39 | – | –
6 | CC[C@H](C)[C@@H]1NC(=O)[C@H](Cc2ccc(O)cc2)NC(=O)CNC(=O)CC[C@@H](C(=O)N(C)CC(=O)N[C@@H](CCC(N)=O)C(=O)NCC(N)=O)NC(=O)[C@H](CC(N)=O)NC(=O)[C@H](CCC(N)=O)NC1=O [Example 31] (GYIQNE[Sar]QG-NH2; lactam N-6) | 9 | – | > 10000 | 2710 | 91 | 131 | –
7 | CC[C@H](C)[C@@H]1NC(=O)[C@H](Cc2ccc(O)cc2)NC(=O)CNC(=O)CC[C@@H](C(=O)N(C)CC(=O)N[C@@H](Cc2ccc(O)cc2)C(=O)NCC(N)=O)NC(=O)[C@H](CC(N)=O)NC(=O)[C@H](CCC(N)=O)NC1=O [Example 32] (GYIQNE[Sar]YG-NH2; lactam N-6) | 4 | – | > 10000 | 1990 | 106 | 119 | –
8 | CC[C@H](C)[C@H](NC(=O)CN(C)C(=O)[C@@H]1CCC(=O)NCC(=O)N[C@@H](Cc2ccc(O)cc2)C(=O)N[C@@H]([C@@H](C)CC)C(=O)N[C@@H](CCC(N)=O)C(=O)N[C@@H](CC(N)=O)C(=O)N1)C(=O)NCC(N)=O [Example 33] (GYIQNE[Sar]IG-NH2; lactam N-6) | 2 | – | > 27000 | 3820 | 101 | 119 | –

Continued by falling EC50 [1], values first:

Row | EC50 [1] [nM] | hOT efficacy (%) [1] [%] | EC50 [2] [nM] | EC50 [3] [nM] | Emax [3, 4] [%] | Emax [1] [%] | hV2 efficacy (%) [3, 4] [%] | Compound
9 | 6 | – | > 10000 | 142 | – | 119 | 104 | CC[C@H](C)[C@@H]1NC(=O)[C@H](Cc2ccc(O)cc2)NC(=O)CNC(=O)CC[C@@H](C(=O)N(C)CC(=O)N[C@@H](CCN)C(=O)NCC(N)=O)NC(=O)[C@H](CC(N)=O)NC(=O)[C@H](CCC(N)=O)NC1=O [Example 30] (GYIQNE[Sar][Dab]G-NH2; lactam N-6)
10 | 5 | 128 | > 10000 | 1500 | 101 | – | – | CC[C@H](C)[C@@H]1NC(=O)[C@H](Cc2ccc(O)cc2)NC(=O)CNC(=O)CC[C@@H](C(=O)N(C)CC(=O)N[C@@H](Cc2ccccc2)C(=O)NCC(N)=O)NC(=O)[C@H](CC(N)=O)NC(=O)[C@H](CCC(N)=O)NC1=O [Example 27] (GYIQNE[Sar]FG-NH2; lactam N-6)
11 | 5 | 122 | > 10000 | 4170 | 87 | – | – | CC[C@H](C)[C@@H]1NC(=O)[C@H](Cc2ccc(O)cc2)NC(=O)CNC(=O)CC[C@@H](C(=O)N(C)CC(=O)N[C@@H](CO)C(=O)NCC(N)=O)NC(=O)[C@H](CC(N)=O)NC(=O)[C@H](CCC(N)=O)NC1=O [Example 28] (GYIQNE[Sar]SG-NH2; lactam N-6)
12 | 2.2 | – | > 27000 | 2510 | 98 | 152 | – | CC[C@H](C)[C@@H]1NC(=O)[C@H](Cc2ccc(O)cc2)NC(=O)CNC(=O)CC[C@@H](C(=O)N2CCC[C@H]2C(=O)N[C@@H](CC(C)C)C(=O)NCC(N)=O)NC(=O)[C@H](CC(N)=O)NC(=O)[C@H](CCC(N)=O)NC1=O [Example 24] (GYIQNEPLG-NH2; lactam N-6)
13 | 2 | 124 | > 10000 | 2620 | 102 | – | – | CC[C@H](C)[C@@H]1NC(=O)[C@H](Cc2ccc(O)cc2)NC(=O)CNC(=O)CC[C@@H](C(=O)N(C)CC(=O)N[C@H](C(=O)NCC(N)=O)C(C)C)NC(=O)[C@H](CC(N)=O)NC(=O)[C@H](CCC(N)=O)NC1=O [Example 26] (GYIQNE[Sar]VG-NH2; lactam N-6)
